Common to all, as to experiment: relative viability (nuclei count vs DMSO), 5 days (fraction); higher = more cells survive
Compound in the test “OSI-027 + AZD7762”: COc1cccc2cc(-c3nc([C@H]4CC[C@H](C(=O)O)CC4)n4ncnc(N)c34)[nH]c12 [OSI-027] + NC(=O)Nc1cc(-c2cccc(F)c2)sc1C(=O)N[C@H]1CCCNC1 [AZD7762] (partner 0.2 µM)
Put shortly:
(§1)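 For relative viability, nuclei counts in treated wells were divided by those in vehicle wells. Lung cancer cell lines had been pin-tool dosed in 1536-well plates the day after seeding and cultured for 5 days, then fixed and stained in one step (final 0.05% Triton X-100, 1% formaldehyde, 1 ug/ml Hoechst) and imaged at 4×. Doses were one drug alone or a fixed anchor-drug dose plus five library-drug doses (not always all listed) in √10 steps, and values are duplicate-plate medians.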

Compound in the test “Alpelisib + Luminespib”: Cc1nc(NC(=O)N2CCC[C@H]2C(N)=O)sc1-c1ccnc(C(C)(C)C(F)(F)F)c1 [Alpelisib] + CCNC(=O)c1noc(-c2cc(C(C)C)c(O)cc2O)c1-c1ccc(CN2CCOCC2)cc1 [Luminespib] (partner 0.01 µM)
Put shortly:
as §1

Compound in the test “Vemurafenib + Linsitinib”: CCCS(=O)(=O)Nc1ccc(F)c(C(=O)c2c[nH]c3ncc(-c4ccc(Cl)cc4)cc23)c1F [Vemurafenib] + C[C@]1(O)C[C@@H](c2nc(-c3ccc4ccc(-c5ccccc5)nc4c3)c3c(N)nccn32)C1 [Linsitinib] (partner 1 µM)
The method, boiled down:
as §1

Compound in the test “Alpelisib + Vorinostat”: Cc1nc(NC(=O)N2CCC[C@H]2C(N)=O)sc1-c1ccnc(C(C)(C)C(F)(F)F)c1 [Alpelisib] + O=C(CCCCCCC(=O)Nc1ccccc1)NO [Vorinostat] (partner 1 µM)
Put shortly: as §1

For 2 cell lines, relative viability results are on record in the supplement of paper PMC10307832.

For the cell line PC-14, the relative viability was found to be 0.369 in the test with OSI-027 + AZD7762 (first compound 0.01 µM); 0.314 in the test with OSI-027 + AZD7762 (first compound 0.03162 µM); 0.302 with OSI-027 + AZD7762 (first compound 0.1 µM); 0.35 with OSI-027 + AZD7762 (first compound 0.3162 µM); 0.22 in the test with OSI-027 + AZD7762 (first compound 1 µM); 0.154 with Alpelisib + Luminespib (first compound 0.04 µM). The relative viability in the test with Alpelisib + Luminespib (first compound 0.4 µM) is 0.168; with Alpelisib + Luminespib (first compound 1.265 µM), 0.13; in the test with Alpelisib + Luminespib (first compound 4 µM) it was 0.144; with Vemurafenib + Linsitinib (first compound 0.03162 µM), 0.93; with Vemurafenib + Linsitinib (first compound 0.3162 µM), 0.922; with Vemurafenib + Linsitinib (first compound 1 µM), 0.995. The relative viability in the test with Alpelisib + Vorinostat (first compound 0.04 µM) is 0.771; with Alpelisib + Vorinostat (first compound 0.1265 µM) it was 0.681; with Alpelisib + Vorinostat (first compound 0.4 µM), 0.717; in the test with Alpelisib + Vorinostat (first compound 1.265 µM), 0.432; with Alpelisib + Vorinostat (first compound 4 µM), 0.624.

As to RERF-LC-KJ, the relative viability with OSI-027 + AZD7762 (first compound 0.01 µM) came out at 1.05; with OSI-027 + AZD7762 (first compound 0.03162 µM) it was 0.742; in the test with OSI-027 + AZD7762 (first compound 0.1 µM), 0.871; with OSI-027 + AZD7762 (first compound 0.3162 µM), 0.748; with OSI-027 + AZD7762 (first compound 1 µM), 0.452; with Alpelisib + Luminespib (first compound 0.04 µM), 1.32. Moreover, the relative viability in the test with Alpelisib + Luminespib (first compound 0.1265 µM) was determined as 1.16; with Alpelisib + Luminespib (first compound 0.4 µM) it was 1.36; with Alpelisib + Luminespib (first compound 1.265 µM) it was 0.917; in the test with Alpelisib + Luminespib (first compound 4 µM), 1.03; with Vemurafenib + Linsitinib (first compound 0.03162 µM), 0.833; with Vemurafenib + Linsitinib (first compound 0.1 µM), 0.86. Further, the relative viability with Vemurafenib + Linsitinib (first compound 0.3162 µM) was 0.924; with Vemurafenib + Linsitinib (first compound 1 µM), 0.923; in the test with Alpelisib + Vorinostat (first compound 0.04 µM) it was 0.634; in the test with Alpelisib + Vorinostat (first compound 0.1265 µM), 0.707; with Alpelisib + Vorinostat (first compound 0.4 µM) it was 0.754; with Alpelisib + Vorinostat (first compound 1.265 µM) it was 0.504. Besides, the relative viability with Alpelisib + Vorinostat (first compound 4 µM) was determined as 0.548.
